Patent US10473666B2, “Dye compounds” (SFC CO., LTD., priority 2015, dated 2019)
One block for each compound: values may come before it.

Key:
[1] = Absorption spectra, emission spectra, molar extinction coefficients and quantum yields of the dye compounds; format: physicochemical
[2] = tested on: HeLa A431 cells; assay: Photostability: fluorescence intensity over time in stained HeLa A431 cells; format: cell-based; settings: HeLa A431 cells stained with 1.0 μM dye
Description: The fluorescence intensities of three areas A, B, and C of HeLa A431 cells stained with the compound of Formula 110 (1.0 μM) were measured at 2-sec intervals for 3500 sec.
The fluorescence intensities of four areas A, B, C, and D of HeLa A431 cells stained with the compound of Formula 98 (1.0 μM) were measured at 2-sec intervals for 3500 sec.
The fluorescence intensities of two areas A and B of HeLa A431 cells stained with Cy3B (1.0 μM) were measured at intervals of 2 s for 2000 s.

[3] = Absorption spectra, emission spectra, molar extinction coefficients and quantum yields of the dye compounds; format: physicochemical; settings: Table 1; solvent DMSO
Description: Absorption spectra (λabs), emission spectra (λem), molar extinction coefficients (ε), and quantum yields of the compounds of Formulae 1-7 were measured and the results are shown in Table 1.
Absorption spectra (λabs), emission spectra (λem), molar extinction coefficients, and quantum yields of the compounds of Formulae 44-53 were measured and the results are shown in Table 4.
The products of the two factors (molar extinction coefficient×fluorescence quantum yield) for the inventive dye compounds were much greater than that for the comparative compound.

[4] = Characterization as pH probes: fluorescence intensity versus pH; format: physicochemical
Description: In addition, the absorption and fluorescence wavelengths of the compound of Formula 97 well match currently available laser lines (488 nm, 532 nm, and 550 nm).
That is, the compound of Formula 111 as a pH probe emitted strong fluorescence at pH 2-6 and the compound of Formula 97 as a pH probe emitted strong fluorescence at pH 8-12.

[5] = tested on: goat anti-mouse IgG; assay: Absorption and fluorescence emission spectra of goat anti-mouse IgG labeled with the dye
Description: Goat anti-mouse IgG was labeled with Alexa Fluor® 568 (Thermo Fisher Scientific) and the compound of Formula 1 and their absorption spectra and fluorescence emission spectra were recorded.
FIG. 1a is an absorption spectrum of goat anti-mouse IgG labeled with the compound of Formula 1, FIG. 1b is an absorption spectrum of goat anti-mouse IgG labeled with Alexa Fluor® 568, FIG. 1c is a fluorescence emission spectrum of goat anti-mouse IgG labeled with the compound of Formula 1, and FIG. 1d is a fluorescence emission spectrum of goat anti-mouse IgG labeled with Alexa Fluor® 568.
Goat anti-mouse IgG was labeled with Alexa Fluor® 594 (Thermo Fisher Scientific) and the compound of Formula 3 and their absorption spectra and fluorescence emission spectra were recorded.
FIG. 2a is an absorption spectrum of goat anti-mouse IgG labeled with the compound of Formula 3, FIG. 2b is an absorption spectrum of goat anti-mouse IgG labeled with Alexa Fluor® 594, FIG. 2c is a fluorescence emission spectrum of goat anti-mouse IgG labeled with the compound of Formula 3, and FIG. 2d is a fluorescence emission spectrum of goat anti-mouse IgG labeled with Alexa Fluor® 594.

[6] = tested on: IgG from mouse serum (primary); assay: FLISA plate fluorescence (bioactivity) of dye-conjugated secondary antibody on coated primary IgG; format: binding; settings: for D/P ratio at which the dye-secondary antibody was conjugated to the primary antibody with the highest efficiency: dye-conjugated goat anti-mouse IgG on IgG from mouse serum; for Fluorescence: dye-conjugated goat anti-mouse IgG
Description: 1. IgG from mouse serum (primary) was dissolved to a concentration of 10 μg/ml in coating buffer.
2. 100 μl of the solution was divided into each well of a FLISA H/B black corning plate.
3. After top sealing, the plate was incubated in the dark at room temperature for 2 h.
4. Each well was washed three times with 300 μl of washing buffer.
5. 300 μl of blocking buffer was placed into each well. After top sealing, the plate was incubated in the dark at room temperature for 1 h.
6. After removal of the blocking buffer, the wells were washed three times with washing buffer.
7. 100 μl of a dye-conjugated secondary antibody (10 μg/ml) was placed into each well. After top sealing, the plate was incubated in the dark at room temperature for 1 h.
8. After removal of the solution, each well was washed three times with 200 μl of washing buffer.
9. 100 μl of PBS was placed into each sample-containing well.
10. Fluorescence was measured with a microplate reader.
The procedure of Experimental Example 4 was repeated except that the compound of Formula 3 was used.
The procedure of Experimental Example 4 was repeated except that the compound of Formula 50 was used.

[7] = tested on: mitochondria, Raw 264.7 cells; assay: Selectivity for mitochondria: co-localization with MitoTracker Green FM in Raw 264.7 cells; format: cell-based; settings: dye 1 μM
Description: The specific selectivity of the compound of Formula 110 for mitochondria was investigated. To this end, Raw 264.7 cells were co-localized with the compound of Formula 110 and a commercially available mitochondrial marker (MTG, 1 μM MitoTracker Green FM for mitochondria).
OPM images were acquired at 560-600 nm (Formula 110, λex=552 nm) and 470-520 nm (MTG, λex=488 nm) and are shown in FIGS. 4a and 4b, respectively. FIG. 4c is a merged image of FIGS. 4a and 4b. The Pearson's co-localization coefficient (A) was calculated using the LAS AF software. [MTG]=1μM for 30 min incubation,λex=488 nm [Formula 110]=1μM for 30 min incubation,λex=552 nm

[8] = measured at 2-sec intervals for 3500 sec
[9] = dye-conjugated secondary antibody, plate fluorescence

Quantum yield ([1]; Table 6, solvent DMSO): 0.77
ε (molar extinction coefficient) ([1]; Table 6, solvent DMSO): 57,000 M^−1cm^−1
λabs ([1]; Table 6, solvent DMSO): 570 nm
λem ([1]; Table 6, solvent DMSO): 601 nm
Quantum yield ([1]; Table 6, solvent EtOH): 0.78
ε (molar extinction coefficient) ([1]; Table 6, solvent EtOH): 64,000 M^−1cm^−1
λabs ([1]; Table 6, solvent EtOH): 570 nm
λem ([1]; Table 6, solvent EtOH): 596 nm
Quantum yield ([1]; Table 6, solvent PBS): 0.51
ε (molar extinction coefficient) ([1]; Table 6, solvent PBS): 57,000 M^−1cm^−1
λabs ([1]; Table 6, solvent PBS): 565 nm
λem ([1]; Table 6, solvent PBS): 595 nm
photostability [2]: good photostability
SMILES: CCN(CC)c1ccc2c(c1)OC1CC[N+]3=C(C1=C2)C(C)(C)c1ccccc13 (centres unmarked) [Formula 98]
change of fluorescence intensity over time [2, 8]: no substantial decreases in fluorescence intensity for 1 h

Q.Y. (quantum yield) [3]: 0.72
λabs [3]: 579 nm
ε (molar extinction coefficient) ([1]; Table 1, solvent DMSO): 12,800 M^−1cm^−1
λem ([1]; Table 1, solvent DMSO): 612 nm
SMILES: CC1(C)CCN(CCCCCC(=O)O)c2ccc3c(c21)OC1CC[N+]2=C(C1=C3)C(C)(C)c1ccccc12 (centres unmarked) [Formula 6]

Quantum yield ([1]; Table 6, solvent PBS (pH 7.4)): 0.53
ε (molar extinction coefficient) ([1]; Table 6, solvent PBS (pH 7.4)): 55,000 M^−1cm^−1
λabs ([1]; Table 6, solvent PBS (pH 7.4)): 530 nm
λem ([1]; Table 6, solvent PBS (pH 7.4)): 585 nm
pH at which the pH probe emitted strong fluorescence [4]: 2-6 pH
fluorescence intensity under acidic conditions ([4]; pH 1-6): increased
fluorescence intensity under basic conditions ([4]; pH 9-12): decreased
SMILES: CC1(C)C2=[N+](CCC3Oc4cc(N5CCN(CCCCCC(=O)O)CC5)ccc4C=C23)c2ccccc21 (centres unmarked) [Formula 111]

Q.Y. (quantum yield) [3]: 0.56
λabs [3]: 617 nm
ε (molar extinction coefficient) ([1]; Table 1, solvent DMSO): 65,000 M^−1cm^−1
λem ([1]; Table 1, solvent DMSO): 659 nm
SMILES: CC1(C)C2=[N+](CCC3Oc4cc5c(cc4C=C23)C(CS(=O)(=O)O)=CC(C)(C)N5CCCCCC(=O)O)c2ccc(S(=O)(=O)[O-])cc21 (centres unmarked) [Formula 5]

Q.Y. (quantum yield) [3]: 1.00
λabs [3]: 584 nm
ε (molar extinction coefficient) ([1]; Table 1, solvent DMSO): 60,000 M^−1cm^−1
λem ([1]; Table 1, solvent DMSO): 615 nm
SMILES: CC1(C)CCN(CCCCCC(=O)O)c2cc3c(cc21)C=C1C2=[N+](CCC1O3)c1ccccc1C2(C)C (centres unmarked) [Formula 7]

Quantum yield ([1]; Table 6, solvent DMSO): 0.86
ε (molar extinction coefficient) ([1]; Table 6, solvent DMSO): 37,000 M^−1cm^−1
λabs ([1]; Table 6, solvent DMSO): 561 nm
λem ([1]; Table 6, solvent DMSO): 597 nm
Quantum yield ([1]; Table 6, solvent EtOH): 0.80
ε (molar extinction coefficient) ([1]; Table 6, solvent EtOH): 50,000 M^−1cm^−1
λabs ([1]; Table 6, solvent EtOH): 558 nm
λem ([1]; Table 6, solvent EtOH): 584 nm
Quantum yield ([1]; Table 6, solvent PBS): 0.78
ε (molar extinction coefficient) ([1]; Table 6, solvent PBS): 37,000 M^−1cm^−1
λabs ([1]; Table 6, solvent PBS): 550 nm
λem ([1]; Table 6, solvent PBS): 579 nm
photostability [2]: good photostability
SMILES: CNc1ccc2c(c1)OC1CC[N+]3=C(C1=C2)C(C)(C)c1ccccc13 (centres unmarked) [Formula 110]
change of fluorescence intensity over time [2, 8]: no substantial decreases in fluorescence intensity for 1 h
staining selectivity for mitochondria [7]: mitochondria were predominantly stained
degree of overlapping (A), Pearson's co-localization coefficient with Mitotracker Green FM ([7]; MTG 1 μM, 30 min incubation, LAS AF software): 0.73

Second part, the compound before the results:

SMILES: CN(CCCCCC(=O)O)c1ccc2c(c1)OC1CC[N+]3=C(C1=C2)C(C)(C)c1cc(S(=O)(=O)CC(S(=O)(=O)[O-])S(=O)(=O)O)ccc13 (centres unmarked) [Formula 4]
Q.Y. (quantum yield) [3]: 0.81
λabs [3]: 584 nm
ε (molar extinction coefficient) ([1]; Table 1, solvent DMSO): 76,000 M^−1cm^−1
λem ([1]; Table 1, solvent DMSO): 614 nm

SMILES: CC1(CCCCCC(=O)O)C2=[N+](CCC3Oc4cc(N(CCCS(=O)(=O)O)CCCS(=O)(=O)O)ccc4C=C23)c2ccc(S(=O)(=O)[O-])cc21 (centres unmarked) [Formula 1]
Q.Y. (quantum yield) [3]: 0.91
λabs [3]: 584 nm
ε (molar extinction coefficient) ([1]; Table 1, solvent DMSO): 66,000 M^−1cm^−1
λem ([1]; Table 1, solvent DMSO): 617 nm
aggregation compared with the Alexa Fluor dye [5]: less aggregated than Alexa Fluor® 568
fluorescence emission intensity compared with the Alexa Fluor dye [5]: higher than that of Alexa Fluor® 568
D/P ratio at which the dye-secondary antibody was conjugated to the primary antibody with the highest efficiency [6]: ~4.8
Fluorescence ([6]; D/P ratio 2.202771): 104.026
Fluorescence ([6]; D/P ratio 4.888795): 127.5422
Fluorescence ([6]; D/P ratio 8.141409): 95.4
Fluorescence ([6]; D/P ratio 11.30465): 91.8519
Fluorescence ([6]; D/P ratio 12.45994): 75.1
bioactivity compared with the Alexa Fluor dye [6, 9]: better bioactivity than Alexa Fluor® 568
brightness values compared with the Alexa Fluor dye [6, 9]: much higher than those of Alexa Fluor® 568

SMILES: CC1(CCCCCC(=O)O)C2=[N+](CCC3Oc4cc5c(cc4C=C23)C(CS(=O)(=O)O)CC(C)(C)N5CCCS(=O)(=O)O)c2ccc(S(=O)(=O)[O-])cc21 (centres unmarked) [Formula 3]
Q.Y. (quantum yield) [3]: 0.87
λabs [3]: 595 nm
ε (molar extinction coefficient) ([1]; Table 1, solvent DMSO): 64,000 M^−1cm^−1
λem ([1]; Table 1, solvent DMSO): 624 nm
fluorescence emission intensity compared with the Alexa Fluor dye [5]: higher than that of Alexa Fluor® 594
D/P ratio at which the dye-secondary antibody was conjugated to the primary antibody with the highest efficiency [6]: ~3.4
Fluorescence ([6]; D/P ratio 2.54): 64.89
Fluorescence ([6]; D/P ratio 3.47): 83.79
Fluorescence ([6]; D/P ratio 4.86): 78.61
Fluorescence ([6]; D/P ratio 5.18): 80.28
Fluorescence ([6]; D/P ratio 5.95): 68.06
bioactivity compared with the Alexa Fluor dye [6, 9]: better bioactivity than Alexa Fluor® 594
brightness values compared with the Alexa Fluor dye ([6]; when the D/P ratio was ≥5): much higher than those of Alexa Fluor® 594

SMILES: CC1(CCCCCC(=O)O)C2=[N+](CCC3Oc4c(cc5c6c4CCCN6CCC5)C=C23)c2ccccc21 (centres unmarked) [Formula 2]
Q.Y. (quantum yield) [3]: 0.94
λabs [3]: 597 nm
ε (molar extinction coefficient) ([1]; Table 1, solvent DMSO): 71,500 M^−1cm^−1
λem ([1]; Table 1, solvent DMSO): 623 nm

SMILES: CC1(C)C2=C3C=C4C5=[N+](CCC4OC3CCN2c2ccccc21)c1ccccc1C5(C)C (centres unmarked) [Cy3B, reference compound]
photostability [2]: poor photostability
change of fluorescence intensity over time ([2]; measured at intervals of 2 s for 2000 s): greatly reduced for 1500 s
